A short description of this test: ATP-based viability loss in HEK293T cells – cell-based, CellTiter-Glo luminescence, cherry-pick, set 3, cytotoxicity control, dose response (AID 720588). Conditions: HEK293T viability, CellTiter-Glo ATP luminescence, 72 h.

Activity calls are given as the source filed them.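 Rule for the calls: active = fitted curve falls past a set limit of signal loss at no more than twice the top dose; inconclusive = flat fit between 30 and 70% signal loss, or poor fit; inactive = signal rise, flat within 30%, or crossing too high.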

Regarding `CCCN(C)C[C@H]1Oc2ncc(-c3ccccc3)cc2C(=O)N([C@@H](C)CO)C[C@H]1C`, under “at 26 µM (top of the series)”, the activity change, negative = cytotoxicity is 2.32% (inactive).

Turning to `COC(=O)C[C@@H]1CC[C@@H]2[C@H](COc3ccc(NC(=O)Nc4cccc(C#N)c4)cc3C(=O)N2C)O1`, for the setting “at 26 µM (top of the series)”, the activity change, negative = cytotoxicity was 53.6% (inactive).

`C[C@@H]1CN([C@@H](C)CO)C(=O)c2cc(NS(=O)(=O)c3ccccc3)ccc2O[C@@H]1CN(C)Cc1ccc(C(=O)Nc2ccccc2N)cc1`: the activity change, negative = cytotoxicity (at 26 µM (top of the series)) is -19.2% (inactive).

In the case of `Cc1ccc(OCCNC(=O)c2cccc(S(=O)(=O)NCc3ccccc3)c2)cc1`, the activity change, negative = cytotoxicity (at 26 µM (top of the series)) was 12.3% (inactive).

With `C[C@H]1CN([C@@H](C)CO)C(=O)Cc2cc(NC(=O)C3CC3)ccc2O[C@H]1CN(C)S(=O)(=O)c1ccc(Cl)cc1`, the activity change, negative = cytotoxicity (at 26 µM (top of the series)) is -9.99% (inactive).

As to `O=C(CCCN1C(=O)/C(=C/c2ccccc2Cl)SC1=S)NNC(=O)c1ccc(Cl)cc1Cl`, for the setting “at 26 µM (top of the series)”, the activity change, negative = cytotoxicity was 12.7% (inactive).

With `O=C(O)c1ccc2cc(-c3ccccc3)[nH]c2c1`, the activity change, negative = cytotoxicity (at 26 µM (top of the series)) was -28.5% (inactive).

For the compound `CC1=NC(=O)C(N=Nc2cccc(C(=O)O)c2)N1c1ccccc1` (configuration not stated), the activity change, negative = cytotoxicity (at 26 µM (top of the series)) is -10% (inactive).

As to `CC(C)CC(NC(=O)c1cccs1)c1nnc(SCc2ccc(Cl)c(Cl)c2)n1C` (configuration not stated), the activity change, negative = cytotoxicity (at 26 µM (top of the series)) was -6.67% (inactive).

Consider `C[C@H](CO)N1C[C@H](C)[C@H](CN(C)Cc2ccc(C(F)(F)F)cc2)Oc2ccc(NC(=O)CCCCCC(=O)Nc3ccccc3N)cc2CC1=O`, for which the activity change, negative = cytotoxicity (at 8 µM (top of the series)) is 50% (inactive).

In the case of `CC(C)(C)[S@](=O)N1Cc2cc(C(=O)NCC(F)(F)F)nc(-c3cccc(-c4cccc(F)c4)c3)c2[C@@H]1CCO`, the activity change, negative = cytotoxicity (at 26 µM (top of the series)) is -2.37% (inactive).

`CC(C)(C)c1ccc(Oc2ccc(N)cn2)cc1`: the activity change, negative = cytotoxicity (at 26 µM (top of the series)) was -15.7% (inactive).

Turning to `O=C(COC(=O)c1ccc[nH]c1=O)Nc1ccc(N2CCCCC2)cc1`, where the note is “at 26 µM (top of the series)”, the activity change, negative = cytotoxicity is -10.3% (inactive).

Take `CCNC(=O)c1cccc(S(=O)(=O)N2CCCCCC2)c1`: the activity change, negative = cytotoxicity (at 26 µM (top of the series)) was -6.96% (inactive).

Regarding `O=C(Nc1nc(-c2ccc(F)c(F)c2)cs1)c1ccc(OCC2CCCO2)cc1` (configuration not stated), the activity change, negative = cytotoxicity (at 26 µM (top of the series)) is -9.94% (inactive).

For `Cc1ccsc1C(=O)OCC(=O)c1cc(C)n(C)c1C`, the activity change, negative = cytotoxicity (at 26 µM (top of the series)) is -19.5% (inactive).

`CN1C(=O)c2cc(NC(=O)c3ccc(Cl)cc3)ccc2OC[C@@H]2O[C@@H](CC(=O)NCc3cccc(F)c3)CC[C@H]21`: the activity change, negative = cytotoxicity (at 26 µM (top of the series)) was -5.64% (inactive).

Consider `CCc1ccc(Cn2ncc3c(C(=O)O)cc(C)nc32)cc1`, for which the activity change, negative = cytotoxicity (at 26 µM (top of the series)) is -2.66% (inactive).

Regarding `C[C@@H]1CN([C@@H](C)CO)C(=O)c2cccc(NC(=O)CCCCCC(=O)Nc3ccccc3N)c2O[C@@H]1CN(C)Cc1ccc(Oc2ccccc2)cc1`, the activity change, negative = cytotoxicity (at 26 µM (top of the series)) was -1.35% (inactive).

Take `CCOC(=O)C1CCCCN1C(=O)CCc1c(C)nc2cc(-c3ccccc3)nn2c1C` (configuration not stated): the activity change, negative = cytotoxicity (at 26 µM (top of the series)) was -10.8% (inactive).

With `O=C(/C=C/c1ccc(Cl)cc1Cl)N(Cc1ccc(Cl)cc1)C1CCS(=O)(=O)C1` (configuration not stated), for the setting “at 26 µM (top of the series)”, the activity change, negative = cytotoxicity is -14.5% (inactive).

For the compound `CCOC(=O)Cc1csc(NC(=S)NC(=O)c2ccc(C)cc2)n1`, the activity change, negative = cytotoxicity (at 26 µM (top of the series)) was -21.9% (inactive).

For `CCc1ccc(/C=C2\SC(=S)N(CCC(=O)Nc3cc(C)on3)C2=O)cc1`, the activity change, negative = cytotoxicity (at 26 µM (top of the series)) is 5.29% (inactive).

With `CCN(CC)c1ccc(C2NC(=O)c3ccccc3N2)cc1` (configuration not stated), for the setting “at 26 µM (top of the series)”, the activity change, negative = cytotoxicity is -18.3% (inactive).

Turning to `N#C[C@H]1[C@H](c2ccc(-c3ccccc3F)cc2)[C@@H](CO)N1C(=O)c1ccccn1`, for the setting “at 26 µM (top of the series)”, the activity change, negative = cytotoxicity is -19.7% (inactive).

As to `COC(=O)C[C@@H]1CC[C@@H]2[C@H](COc3ccc(NC(=O)c4cc(C)on4)cc3C(=O)N2C)O1`, the activity change, negative = cytotoxicity (at 26 µM (top of the series)) was -12.8% (inactive).

Consider `c1cncc(-c2ccc([C@@H]3[C@H]4CNC[C@@H]3N4CC3CCOCC3)cc2)c1`, for which, under “at 26 µM (top of the series)”, the activity change, negative = cytotoxicity is 61.9% (inactive).

For the compound `O=c1[nH]c(/C=C2\C=Nc3ccccc32)c(O)n1Cc1ccccc1F`, the activity change, negative = cytotoxicity (at 26 µM (top of the series)) is -17.6% (inactive).

As for `O=C(O)c1ccc(N/N=C/c2cc(Br)cs2)cc1`, where the note is “at 26 µM (top of the series)”, the activity change, negative = cytotoxicity is -9.61% (inactive).

For `COc1ccc(Nc2oc(COc3ccccc3OC)nc2C#N)cc1`, the activity change, negative = cytotoxicity (at 26 µM (top of the series)) was -13.8% (inactive).

In the case of `CCCN1C(=O)/C(=C/c2nc3ccccc3c(=O)[nH]2)c2ccccc21`, the activity change, negative = cytotoxicity (at 26 µM (top of the series)) is -9.06% (inactive).

`CC(=O)c1ccc(N=Nc2ccc(C)cc2)cc1`: the activity change, negative = cytotoxicity (at 26 µM (top of the series)) was -17% (inactive).

Take `COC(=O)C[C@@H]1CC[C@H]2[C@H](COc3ccc(NC(=O)Nc4cc(C)cc(C)c4)cc3C(=O)N2C)O1`: under “at 26 µM (top of the series)”, the activity change, negative = cytotoxicity was -2.27% (inactive).

As to `COC(=O)C(CC#Cc1ccc2c(c1)[C@]1(C(=O)N2)[C@H](c2ccc(OCCO)cc2)N2[C@H](c3ccccc3)[C@H](c3ccccc3)OC(=O)[C@H]2[C@@H]1C(=O)N1CCN(c2ncccn2)CC1)C(=O)OC`, the activity change, negative = cytotoxicity (at 26 µM (top of the series)) was 1.09% (inactive).

For `Cc1ccc(S(=O)(=O)N(C)C[C@H]2Oc3c(cccc3N(C)C)C(=O)N([C@@H](C)CO)C[C@@H]2C)cc1`, the activity change, negative = cytotoxicity (at 26 µM (top of the series)) was -21% (inactive).

Regarding `CCOc1ccc(OCc2ccc(C(=O)NN=Cc3ccc[nH]3)cc2)cc1`, under “at 26 µM (top of the series)”, the activity change, negative = cytotoxicity was -39.9% (inactive).

As to `Cc1ccc(/C=C/C(=O)N2CCN(S(=O)(=O)c3c(C)c(C)cc(C)c3C)CC2)o1`, the activity change, negative = cytotoxicity (at 26 µM (top of the series)) is 16.1% (inactive).

For the compound `C(=C\c1ccc(C2[C@H]3CNC[C@@H]2N3Cc2ccccn2)cc1)/c1ccccc1` (some centres not stated), the activity change, negative = cytotoxicity (at 26 µM (top of the series)) is 39.5% (inactive).

Take `Cc1ccc(-c2ccc3c(c2)O[C@@H](CN(C)C(=O)Nc2ccc(F)cc2)[C@H](C)CN([C@@H](C)CO)S3(=O)=O)cc1`: for the setting “at 26 µM (top of the series)”, the activity change, negative = cytotoxicity is 48.8% (inactive).

As to `CCOc1ccc(C(c2c(NC(=O)c3ccccc3)sc(C)c2C)N2CCN(CCO)CC2)cc1` (configuration not stated), where the note is “at 26 µM (top of the series)”, the activity change, negative = cytotoxicity is -15.2% (inactive).

As for `CCN(CC)C(=O)CN1C(=O)C(=O)c2ccccc21`, the activity change, negative = cytotoxicity (at 26 µM (top of the series)) was -11% (inactive).

Consider `CN(C)c1ccc2c(c1)[C@@H]1C[C@@H](CC(=O)NCc3ccc(Oc4ccccc4)cc3)O[C@H](CO)[C@@H]1O2`, for which, where the note is “at 26 µM (top of the series)”, the activity change, negative = cytotoxicity is -15.8% (inactive).

`COCCOC(=O)N1C(=O)[C@@]2(c3cc(C#CCC(C(=O)OC)C(=O)OC)ccc31)[C@H](c1ccccc1OCCO)N1[C@H](c3ccccc3)[C@H](c3ccccc3)OC(=O)[C@H]1[C@@H]2C(=O)N1CCN(c2ncccn2)CC1`: the activity change, negative = cytotoxicity (at 26 µM (top of the series)) is 28.9% (inactive).

As to `CC(=O)c1ccc(N=C2C(=O)Nc3ccccc32)cc1`, the activity change, negative = cytotoxicity (at 26 µM (top of the series)) was -11.5% (inactive).

As for `CCNC(=O)[C@@H]1[C@@H](CO)[C@@H]2Cn3c(ccc(C4=CCCCC4)c3=O)[C@H]1N2CC`, the activity change, negative = cytotoxicity (at 26 µM (top of the series)) was -16.5% (inactive).

`O=C(C1CC1)N1C[C@@H]2N[C@H](C1)C2c1ccc(/C=C/c2ccccc2)cc1` (some centres not stated): under “at 26 µM (top of the series)”, the activity change, negative = cytotoxicity was -31.7% (inactive).

For the compound `C=CCOc1ccccc1C(=O)/C=C1/C(=O)Nc2ccccc21`, the activity change, negative = cytotoxicity (at 26 µM (top of the series)) was -8.17% (inactive).

The values above are taken from PubChem BioAssay AID720588 (Broad Institute, 2013).
